From patent US9156801B2, “2-substituted oleanolic acid derivative, method preparing for same, and application thereof” (HANGZHOU BENSHENG PHARMACEUTICAL CO., LTD., priority 2011, dated 2015)
≈ marks a conversion by molar mass, not a printed value.

Legend:
Hep G2 cell line = assay: solid tumor cell growth inhibition, MTT; type: cell-based, human; conditions: Homo sapiens; for inhibition at 16 µg/mL: HepG2, 72 h, Hep G2, 16 μg/mL compound, 72 h, read-out: IR (cell proliferation inhibition rate); for IC50: HepG2, Hep G2, 72 h
In short: (§1)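 Growth inhibition by MTT: 4000 cells/well seeded, 24 h pre-culture, then 72 h compound treatment across a concentration range at 37° C, 5% CO2, in DMEM high glucose with 10% FBS.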

A549 cell line = assay: solid tumor cell growth inhibition, MTT; type: cell-based; conditions: Homo sapiens; for IC50: A549, 72 h; for inhibition at 16 µg/mL: A549, 16 μg/mL compound, 72 h, read-out: IR (cell proliferation inhibition rate)
In short: as §1

CNE cell line = assay: solid tumor cell growth inhibition, MTT; type: cell-based; conditions: Homo sapiens, 72 h; for inhibition at 16 µg/mL: 16 μg/mL compound, read-out: IR (cell proliferation inhibition rate)
In short: as §1

MGC 803 cell line = assay: solid tumor cell growth inhibition, MTT; type: cell-based; conditions: Homo sapiens; for inhibition at 16 µg/mL: MGC 803, 16 μg/mL compound, 72 h, read-out: IR (cell proliferation inhibition rate); for IC50: MGC 803, 72 h
In short: as §1

Hela cell line = assay: solid tumor cell growth inhibition, MTT; type: cell-based; conditions: Homo sapiens, 72 h; for IC50: HeLa; for inhibition at 16 µg/mL: Hela, 16 μg/mL compound, read-out: IR (cell proliferation inhibition rate)
In short: as §1

CaES-17 cell line = assay: solid tumor cell growth inhibition, MTT; type: cell-based; conditions: Homo sapiens, CaEs17; for inhibition at 16 µg/mL: CaES-17, 16 μg/mL compound, 72 h, read-out: IR (cell proliferation inhibition rate); for IC50: CaES-17, 72 h
In short: as §1

SK-OV-3 cell line = assay: solid tumor cell growth inhibition, MTT; type: cell-based; conditions: Homo sapiens; for IC50: SK-OV-3, 72 h; for inhibition at 16 µg/mL: SK-OV-3, 16 μg/mL compound, 72 h, read-out: IR (cell proliferation inhibition rate)
In short: as §1

Becap37 cell line = assay: solid tumor cell growth inhibition, MTT; type: cell-based; conditions: Homo sapiens; for inhibition at 16 µg/mL: Becap37, 16 μg/mL compound, 72 h, read-out: IR (cell proliferation inhibition rate); for IC50: Becap37, 72 h
In short: as §1

MG-63 cell line = assay: solid tumor cell growth inhibition, MTT; type: cell-based; conditions: Homo sapiens; for IC50: MG-63, 72 h; for inhibition at 16 µg/mL: MG-63, 16 μg/mL compound, 72 h, read-out: IR (cell proliferation inhibition rate)
In short: as §1

U87 MG cell line = assay: solid tumor cell growth inhibition, MTT; type: cell-based; conditions: Homo sapiens, U-87 MG, 72 h; for inhibition at 16 µg/mL: 16 μg/mL compound, read-out: IR (cell proliferation inhibition rate)
In short: as §1

PC-3 cell line = assay: solid tumor cell growth inhibition, MTT; type: cell-based; conditions: Homo sapiens; for IC50: PC-3, 72 h; for inhibition at 16 µg/mL: PC-3, 16 μg/mL compound, 72 h, read-out: IR (cell proliferation inhibition rate)
In short: as §1

Hep-2 cell line = assay: solid tumor cell growth inhibition, MTT; type: cell-based; conditions: Homo sapiens; for IC50: HEp-2, 72 h; for inhibition at 16 µg/mL: Hep-2, 16 μg/mL compound, 72 h, read-out: IR (cell proliferation inhibition rate)
In short: as §1

PANC-1 cell line = assay: solid tumor cell growth inhibition, MTT; type: cell-based; conditions: Homo sapiens; for IC50: PANC-1, 72 h; for inhibition at 16 µg/mL: PANC-1, 16 μg/mL compound, 72 h, read-out: IR (cell proliferation inhibition rate)
In short: as §1

RKO cell line = assay: solid tumor cell growth inhibition, MTT; type: cell-based; conditions: Homo sapiens, 72 h; for inhibition at 16 µg/mL: 16 μg/mL compound, read-out: IR (cell proliferation inhibition rate)
In short: as §1

RPMI8226 cell line = assay: multiple myeloma cell growth inhibition, MTT; type: cell-based; conditions: Homo sapiens, RPMI-8226; for inhibition at 16 µg/mL: RPMI8226, 16 μg/mL compound, 72 h, read-out: IR (cell proliferation inhibition rate); for IC50: RPMI8226, 72 h
In short: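 RPMI8226 cells (6000 per well) in RPMI 1640 with 10% FBS were exposed to several concentrations of compound for 72 h at 37° C and 5% CO2. Viable cells were quantified by MTT, with inhibition set to 0% in untreated controls.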

H9 cell line = assay: leukemia cell growth inhibition, MTT; type: cell-based; conditions: Homo sapiens; for IC50: H9, 72 h; for inhibition at 16 µg/mL: H9, 16 μg/mL compound, 72 h, read-out: IR (cell proliferation inhibition rate)
In short: (§2)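 6000 cells per well in RPMI 1640 with 10% FBS were exposed to the oleanolic acid derivatives at a range of concentrations for 72 h at 37 °C, 5% CO2. Viable cells were measured by MTT, with untreated control inhibition set at 0%.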

Kasumi-1 cell line = assay: leukemia cell growth inhibition, MTT; type: cell-based; conditions: Homo sapiens; for inhibition at 16 µg/mL: Kasumi-1, 16 μg/mL compound, 72 h, read-out: IR (cell proliferation inhibition rate); for IC50: Kasumi-1, 72 h
In short: as §2

K562/adr cell line = assay: leukemia cell growth inhibition, MTT; type: cell-based; conditions: Homo sapiens, 72 h; for IC50: K562/Adr; for inhibition at 16 µg/mL: K562/adr, 16 μg/mL compound, read-out: IR (cell proliferation inhibition rate)
In short: as §2

Jurkat cell line = assay: leukemia cell growth inhibition, MTT; type: cell-based; conditions: Homo sapiens, 72 h; for inhibition at 16 µg/mL: 16 μg/mL compound, read-out: IR (cell proliferation inhibition rate)
In short: as §2

NB4 cell line = assay: leukemia cell growth inhibition, MTT; type: cell-based; conditions: Homo sapiens, NB-4; for inhibition at 16 µg/mL: NB4, 16 μg/mL compound, 72 h, read-out: IR (cell proliferation inhibition rate); for IC50: NB4, 72 h
In short: as §2

With COC(=O)[C@]12CCC(C)(C)CC1C1=CCC3[C@@]4(C)CC(C(=O)NCCCN5CCOCC5)C(=O)C(C)(C)C4CC[C@@]3(C)[C@]1(C)CC2 (some centres unmarked) [BS-OA-037] as the molecule, how does the inhibition at 16 µg/mL (Hep G2 cell line) read?
The inhibition at 16 µg/mL was 95.7%.

What about the IC50 (Hep G2 cell line) of the same molecule?
The IC50 was 8.68 µg/mL (≈ 13.6 µM).

What about the IC50 (A549 cell line) of the same molecule?
The IC50 was 10.4 µg/mL (≈ 16.3 µM).

And the inhibition at 16 µg/mL (A549 cell line)?
Its inhibition at 16 µg/mL is 82%.

What about the inhibition at 16 µg/mL (CNE cell line) of the same molecule?
The inhibition at 16 µg/mL was 52.6%.

And the IC50 (CNE cell line)?
Its IC50 is 15.5 µg/mL (≈ 24.2 µM).

And the inhibition at 16 µg/mL (MGC 803 cell line)?
The inhibition at 16 µg/mL was 80.5%.

And the IC50 (MGC 803 cell line)?
The IC50 was 10.8 µg/mL (≈ 16.9 µM).

What about the IC50 (Hela cell line) of the same molecule?
Its IC50 is 11 µg/mL (≈ 17.3 µM).

And the inhibition at 16 µg/mL (Hela cell line)?
Its inhibition at 16 µg/mL is 93.6%.

What about the inhibition at 16 µg/mL (CaES-17 cell line) of the same molecule?
The inhibition at 16 µg/mL was 82.3%.

What about the IC50 (CaES-17 cell line) of the same molecule?
Its IC50 is 11.6 µg/mL (≈ 18.1 µM).

What about the IC50 (SK-OV-3 cell line) of the same molecule?
Its IC50 is 10.2 µg/mL (≈ 15.9 µM).

And the inhibition at 16 µg/mL (SK-OV-3 cell line)?
Its inhibition at 16 µg/mL is 90.9%.

What about the inhibition at 16 µg/mL (Becap37 cell line) of the same molecule?
The inhibition at 16 µg/mL was 8.4%.

And the IC50 (Becap37 cell line)?
The IC50 was greater than 16 µg/mL.

What about the IC50 (MG-63 cell line) of the same molecule?
Its IC50 is 12.5 µg/mL (≈ 19.5 µM).

What about the inhibition at 16 µg/mL (MG-63 cell line) of the same molecule?
The inhibition at 16 µg/mL was 64.6%.

And the inhibition at 16 µg/mL (U87 MG cell line)?
The inhibition at 16 µg/mL was 92.6%.

What about the IC50 (U87 MG cell line) of the same molecule?
The IC50 was 11.1 µg/mL (≈ 17.4 µM).

What about the IC50 (PC-3 cell line) of the same molecule?
Its IC50 is 18.7 µg/mL (≈ 29.2 µM).

What about the inhibition at 16 µg/mL (PC-3 cell line) of the same molecule?
Its inhibition at 16 µg/mL is 44.2%.

And the IC50 (Hep-2 cell line)?
The IC50 was greater than 16 µg/mL.

And the inhibition at 16 µg/mL (Hep-2 cell line)?
Its inhibition at 16 µg/mL is 25.6%.

What about the IC50 (PANC-1 cell line) of the same molecule?
Its IC50 is greater than 16 µg/mL.

What about the inhibition at 16 µg/mL (PANC-1 cell line) of the same molecule?
The inhibition at 16 µg/mL was 11.3%.

And the inhibition at 16 µg/mL (RKO cell line)?
The inhibition at 16 µg/mL was 62.6%.

And the IC50 (RKO cell line)?
The IC50 was 14.4 µg/mL (≈ 22.5 µM).

What about the inhibition at 16 µg/mL (RPMI8226 cell line) of the same molecule?
The inhibition at 16 µg/mL was 99.1%.

What about the IC50 (RPMI8226 cell line) of the same molecule?
The IC50 was 2.43 µg/mL (≈ 3.8 µM).

What about the IC50 (H9 cell line) of the same molecule?
Its IC50 is 8.73 µg/mL (≈ 13.7 µM).

And the inhibition at 16 µg/mL (H9 cell line)?
Its inhibition at 16 µg/mL is 95.8%.

And the inhibition at 16 µg/mL (Kasumi-1 cell line)?
The inhibition at 16 µg/mL was 63.7%.

What about the IC50 (Kasumi-1 cell line) of the same molecule?
The IC50 was 13.5 µg/mL (≈ 21.1 µM).

What about the IC50 (K562/adr cell line) of the same molecule?
The IC50 was 1.57 µg/mL (≈ 2.46 µM).

And the inhibition at 16 µg/mL (K562/adr cell line)?
Its inhibition at 16 µg/mL is 97.6%.

What about the inhibition at 16 µg/mL (Jurkat cell line) of the same molecule?
The inhibition at 16 µg/mL was 80.4%.

What about the IC50 (Jurkat cell line) of the same molecule?
Its IC50 is 11.5 µg/mL (≈ 17.9 µM).

And the inhibition at 16 µg/mL (NB4 cell line)?
Its inhibition at 16 µg/mL is 97.6%.

What about the IC50 (NB4 cell line) of the same molecule?
The IC50 was 4.59 µg/mL (≈ 7.18 µM).

What does the source list for CN1CCN(CCCNC(=O)C2C[C@]3(C)[C@H]4CC=C5[C@@H]6CC(C)(C)CC[C@]6(C(=O)O)CC[C@@]5(C)[C@]4(C)CC[C@H]3C(C)(C)C2=O)CC1 (some centres unmarked) [BS-OA-110]?
inhibition at 16 µg/mL (Hep G2 cell line): 29.5%; IC50 (Hep G2 cell line): > 16 µg/mL; IC50 (A549 cell line): > 16 µg/mL; inhibition at 16 µg/mL (A549 cell line): 4%; inhibition at 16 µg/mL (CNE cell line): 30.1%; IC50 (CNE cell line): > 16 µg/mL; inhibition at 16 µg/mL (MGC 803 cell line): 2.9%; IC50 (MGC 803 cell line): > 16 µg/mL; IC50 (Hela cell line): > 16 µg/mL; inhibition at 16 µg/mL (Hela cell line): 26.1%; inhibition at 16 µg/mL (CaES-17 cell line): -1%; IC50 (CaES-17 cell line): > 16 µg/mL; IC50 (SK-OV-3 cell line): > 16 µg/mL; inhibition at 16 µg/mL (SK-OV-3 cell line): -20.1%; inhibition at 16 µg/mL (Becap37 cell line): 22.2%; IC50 (Becap37 cell line): > 16 µg/mL; IC50 (MG-63 cell line): > 16 µg/mL; inhibition at 16 µg/mL (MG-63 cell line): 29.5%; inhibition at 16 µg/mL (U87 MG cell line): -12.6%; IC50 (U87 MG cell line): > 16 µg/mL; IC50 (PC-3 cell line): > 16 µg/mL; inhibition at 16 µg/mL (PC-3 cell line): -11.4%; IC50 (Hep-2 cell line): > 16 µg/mL; inhibition at 16 µg/mL (Hep-2 cell line): -6.3%; IC50 (PANC-1 cell line): > 16 µg/mL; inhibition at 16 µg/mL (PANC-1 cell line): 13.1%; inhibition at 16 µg/mL (RKO cell line): -19.1%; IC50 (RKO cell line): > 16 µg/mL; inhibition at 16 µg/mL (RPMI8226 cell line): 96.7%; IC50 (RPMI8226 cell line): 8.58 µg/mL (≈ 13.4 µM); IC50 (H9 cell line): > 16 µg/mL; inhibition at 16 µg/mL (H9 cell line): 37.9%; inhibition at 16 µg/mL (Kasumi-1 cell line): 41.7%; IC50 (Kasumi-1 cell line): > 16 µg/mL; IC50 (K562/adr cell line): 8.79 µg/mL (≈ 13.8 µM); inhibition at 16 µg/mL (K562/adr cell line): 81.9%; inhibition at 16 µg/mL (Jurkat cell line): 45.5%; IC50 (Jurkat cell line): 18.4 µg/mL (≈ 28.8 µM); inhibition at 16 µg/mL (NB4 cell line): 78.8%; IC50 (NB4 cell line): 8.95 µg/mL (≈ 14 µM)
